According to patent US8952024B2, “Herbicidal pyrimidone derivatives” (E I du Pont de Nemours and Company, priority 2009, dated 2015):

Legend:
Assay type in all cases: in vivo
[1] = tested on: Italian ryegrass (Lolium multiflorum); assay: Test B pre-/postemergence plant response; conditions: for Plant response rating, Ryegrass, Italian: Postemergence
Method in brief: (§1)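 Each species received compound formulated in non-phytotoxic solvent with surfactant, either at planting into a loam and sand blend or as a foliar spray once plants reached 2 to 18 cm in peat-based medium. Plants stayed in the greenhouse 13 to 15 days before visual evaluation against controls, scored 0 (no effect) to 100 (complete control).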

[2] = tested on: bermudagrass (Cynodon dactylon); assay: Test B pre-/postemergence plant response; conditions: for Plant response rating, Bermudagrass: Postemergence
Method in brief: as §1

[3] = tested on: blackgrass (Alopecurus myosuroides); assay: Test B pre-/postemergence plant response; conditions: for Plant response rating, Blackgrass: Postemergence
Method in brief: as §1

corn (Zea mays) = assay: Test B pre-/postemergence plant response; conditions: for Plant response rating, Corn: Postemergence
Method in brief: as §1

[4] = tested on: downy bromegrass (Bromus tectorum); assay: Test B pre-/postemergence plant response; conditions: for Plant response rating, Bromegrass, Downy: Postemergence
Method in brief: as §1

[5] = tested on: giant foxtail (Setaria faberii); assay: Test B pre-/postemergence plant response; conditions: for Plant response rating, Foxtail, Giant: Postemergence
Method in brief: as §1

[6] = tested on: goosegrass (Eleusine indica); assay: Test B pre-/postemergence plant response; conditions: for Plant response rating, Goosegrass: Postemergence
Method in brief: as §1

[7] = tested on: green foxtail (Setaria viridis); assay: Test B pre-/postemergence plant response; conditions: for Plant response rating, Foxtail, Green: Postemergence
Method in brief: as §1

[8] = tested on: johnsongrass (Sorghum halepense); assay: Test B pre-/postemergence plant response; conditions: for Plant response rating, Johnsongrass: Postemergence
Method in brief: as §1

[9] = tested on: morningglory (Ipomoea coccinea); assay: Test B pre-/postemergence plant response; conditions: for Plant response rating, Morningglory: Postemergence
Method in brief: as §1

[10] = tested on: pigweed (Amaranthus retroflexus); assay: Test B pre-/postemergence plant response; conditions: for Plant response rating, Pigweed: Postemergence
Method in brief: as §1

[11] = tested on: ragweed (common ragweed, Ambrosia elatior); assay: Test B pre-/postemergence plant response; conditions: for Plant response rating, Ragweed: Postemergence
Method in brief: as §1

soybean (Glycine max) = assay: Test B pre-/postemergence plant response; conditions: for Plant response rating, Soybean: Postemergence
Method in brief: as §1

[12] = tested on: velvetleaf (Abutilon theophrasti); assay: Test B pre-/postemergence plant response; conditions: for Plant response rating, Velvetleaf: Postemergence
Method in brief: as §1

[13] = tested on: wheat (Triticum aestivum); assay: Test B pre-/postemergence plant response; conditions: for Plant response rating, Wheat: Postemergence
Method in brief: as §1

[14] = tested on: canarygrass (Phalaris minor); assay: Test B postemergence plant response; conditions: for Plant response rating, Canarygrass: Postemergence
Method in brief: (§2)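 Plants grown in peat/vermiculite medium were sprayed postemergence at 2–18 cm height (1- to 4-leaf stage). After 13–15 days in the greenhouse, response was rated visually against untreated controls on a 0–100 scale (0 no effect, 100 complete control).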

[15] = tested on: chickweed (Stellaria media); assay: Test B postemergence plant response; conditions: for Plant response rating, Chickweed: Postemergence
Method in brief: as §2

[16] = tested on: winter barley (Hordeum vulgare); assay: Test B postemergence plant response; conditions: for Plant response rating, Barley: Postemergence
Method in brief: as §2

[17] = 62 g ai/ha, postemergence, 0 is no effect, 100 is complete control, 13 to 15 days
[18] = 31 g ai/ha, 0 to 100 scale (0 no effect, 100 complete control)
[19] = 125 g ai/ha, scale 0 to 100 (0 no effect, 100 complete control)
[20] = 250 g ai/ha, scale 0 to 100 (0 no effect, 100 complete control), 13 to 15 days

O=C1CCCC(O)=C1C(=O)c1cnc(-c2ccccc2)n(C2CCOCC2)c1=O [Compound 129]
Ryegrass, Italian plant response rating (0 to 100 scale) [1, 17]: 0
Plant response rating, Ryegrass, Italian [1, 18]: 0
Plant response rating, Ryegrass, Italian [1, 19]: 0
Plant response rating, Ryegrass, Italian [1, 20]: 0
Bermudagrass plant response rating (0 to 100 scale) [2, 17]: 80
Plant response rating, Bermudagrass [2, 18]: 80
Plant response rating, Bermudagrass [2, 19]: 95
Plant response rating, Bermudagrass [2, 20]: 98
Blackgrass plant response rating (0 to 100 scale) [3, 17]: 5
Plant response rating, Blackgrass [3, 18]: 0
Plant response rating, Blackgrass [3, 19]: 5
Plant response rating, Blackgrass [3, 20]: 5
Corn plant response rating (0 to 100 scale) (corn (Zea mays); [17]): 35
Plant response rating, Corn (corn (Zea mays); [18]): 20
Plant response rating, Corn (corn (Zea mays); [19]): 60
Plant response rating, Corn (corn (Zea mays); [20]): 60
Bromegrass, Downy plant response rating (0 to 100 scale) [4, 17]: 10
Plant response rating, Bromegrass, Downy [4, 18]: 5
Plant response rating, Bromegrass, Downy [4, 19]: 15
Plant response rating, Bromegrass, Downy [4, 20]: 35
Foxtail, Giant plant response rating (0 to 100 scale) [5, 17]: 85
Plant response rating, Foxtail, Giant [5, 18]: 70
Plant response rating, Foxtail, Giant [5, 19]: 90
Plant response rating, Foxtail, Giant [5, 20]: 98
Goosegrass plant response rating (0 to 100 scale) [6, 17]: 85
Plant response rating, Goosegrass [6, 18]: 85
Plant response rating, Goosegrass [6, 19]: 90
Plant response rating, Goosegrass [6, 20]: 95
Foxtail, Green plant response rating (0 to 100 scale) [7, 17]: 90
Plant response rating, Foxtail, Green [7, 18]: 80
Plant response rating, Foxtail, Green [7, 19]: 90
Plant response rating, Foxtail, Green [7, 20]: 95
Johnsongrass plant response rating (0 to 100 scale) [8, 17]: 45
Plant response rating, Johnsongrass [8, 18]: 40
Plant response rating, Johnsongrass [8, 19]: 70
Plant response rating, Johnsongrass [8, 20]: 85
Morningglory plant response rating (0 to 100 scale) [9, 17]: 90
Plant response rating, Morningglory [9, 18]: 90
Plant response rating, Morningglory [9, 19]: 90
Plant response rating, Morningglory [9, 20]: 90
Pigweed plant response rating (0 to 100 scale) [10, 17]: 95
Plant response rating, Pigweed [10, 18]: 85
Plant response rating, Pigweed [10, 19]: 98
Plant response rating, Pigweed [10, 20]: 98
Ragweed plant response rating (0 to 100 scale) [11, 17]: 95
Plant response rating, Ragweed [11, 18]: 90
Plant response rating, Ragweed [11, 19]: 95
Plant response rating, Ragweed [11, 20]: 95
Soybean plant response rating (0 to 100 scale) (soybean (Glycine max); [17]): 98
Plant response rating, Soybean (soybean (Glycine max); [18]): 95
Plant response rating, Soybean (soybean (Glycine max); [19]): 98
Plant response rating, Soybean (soybean (Glycine max); [20]): 98
Velvetleaf plant response rating (0 to 100 scale) [12, 17]: 95
Plant response rating, Velvetleaf [12, 18]: 95
Plant response rating, Velvetleaf [12, 19]: 95
Plant response rating, Velvetleaf [12, 20]: 100
Wheat plant response rating (0 to 100 scale) [13, 17]: 0
Plant response rating, Wheat [13, 18]: 0
Plant response rating, Wheat [13, 19]: 0
Plant response rating, Wheat [13, 20]: 0
Canarygrass plant response rating (0 to 100 scale) [14, 17]: 0
Plant response rating, Canarygrass [14, 18]: 0
Plant response rating, Canarygrass [14, 19]: 0
Plant response rating, Canarygrass [14, 20]: 0
Chickweed plant response rating (0 to 100 scale) [15, 17]: 85
Plant response rating, Chickweed [15, 18]: 85
Plant response rating, Chickweed [15, 19]: 90
Plant response rating, Chickweed [15, 20]: 100
Barley plant response rating (0 to 100 scale) [16, 17]: 0
Plant response rating, Barley [16, 18]: 0
Plant response rating, Barley [16, 19]: 0
Plant response rating, Barley [16, 20]: 0
